Results on two molecules are retold here after patent publication US20220062299A1, “USE OF GLUCOCORTICOID STEROIDS IN PREVENTING AND TREATING CONDITIONS OF MUSCLE WASTING, AGING AND METABOLIC DISORDER” (NORTHWESTERN UNIVERSITY, priority 2018, published 2022).

Each structure is given as a SMILES string.

Assay [1] relates to Duchenne muscular dystrophy boys. On the set-up: dose or concentration left out as unconfirmed. To be noted: cited from earlier work.
Assay [2] has as its system mdx; Dysf-null; Sgcg-null mice. Nature of the assay: Once-weekly glucocorticoids in three murine models of muscle disease. Format: in vivo, mouse. The note with it: 1 mg/kg once-weekly, contrary to daily dosing. An excerpt: Glucocorticoid steroids are widely prescribed drugs for chronic inflammatory conditions, and their daily intake generally correlates with muscle wasting and weakness, osteoporosis, obesity and metabolic disorders. […] (Quattrocelli et al, J Clin Invest 2017; Quattrocelli et al, Am J Pathol 2017; Quattrocelli et al., JCI Insight. 2019 Dec. 19; 4(24). pii: 132402. doi: 10.1172/jci.insight.132402).

Regarding `CC/C=C\C/C=C\C/C=C\C/C=C\C/C=C\C/C=C\CCC(=O)NCCNC(=O)c1ccccc1O` [Edasalonexent], in assay [1], the muscle disease progression entry is “delayed”.

As for `CC(=O)OCC(=O)[C@@]12N=C(C)O[C@@H]1C[C@H]1[C@@H]3CCC4=CC(=O)C=C[C@]4(C)[C@H]3[C@@H](O)C[C@@]12C` [deflazacort], the “muscle force and mass” value in assay [2] is reported as “improved”.
